The test concerns the target T1, Human GLP-1 receptor (Homo sapiens, UniProt P43220).
T1 construct: expressed in transfected cells
The test can be described thus: Measurement of GLP-1 receptor agonist activity (cAMP assay). The test is classed as cell-based. As to conditions: cAMP increase in GLP-1 R/CHO-K1 cells, 2 nM human GLP-1 (7-36) = 100%, DMSO only = 0%. Summed up: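 Agonism measured as cAMP accumulation by time-resolved FRET immunoassay in CHO-K1 cells stably expressing human GLP-1 receptor. Cells treated for 1 h at 37 °C with compound and forskolin (400 μM stock), in buffer containing the PDE inhibitors IBMX (0.1 mM) and RO20-1724 (0.2 mM).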

The mark [1] stands for this setting: CHO-K1, maximum effect, read-out: Emax.

“And” between values parts separate entries of the source, which are not always exact repeats. Equal values may be shown once. Read-outs that look alike come from different tables or passages of the source.

T1 sequence (P43220 24-463): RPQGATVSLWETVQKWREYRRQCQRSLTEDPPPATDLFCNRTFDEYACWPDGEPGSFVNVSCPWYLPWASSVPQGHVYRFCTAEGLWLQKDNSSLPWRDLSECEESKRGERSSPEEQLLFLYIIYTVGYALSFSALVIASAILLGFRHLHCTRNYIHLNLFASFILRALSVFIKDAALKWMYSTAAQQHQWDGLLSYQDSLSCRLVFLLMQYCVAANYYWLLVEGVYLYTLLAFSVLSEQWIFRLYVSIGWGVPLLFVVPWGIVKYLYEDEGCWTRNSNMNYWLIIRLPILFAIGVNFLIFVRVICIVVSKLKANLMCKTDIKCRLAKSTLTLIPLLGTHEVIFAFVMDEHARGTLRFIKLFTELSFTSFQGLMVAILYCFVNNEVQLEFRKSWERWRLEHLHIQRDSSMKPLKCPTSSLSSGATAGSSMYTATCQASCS

For orientation: Emax means the maximal effect, on the per cent scale that the assay sets. The EC50 is the concentration that produces a half-maximal response. `C[C@H]1c2cc(OCc3ccc(C4CC4)cc3)c(Cl)cc2CCN1Cc1nc2c(F)cc(C(=O)O)cc2n1C[C@@H]1CCO1` [Compound I-333] showed an EC50 of 8050 pM. Under setting [1], the Emax came to 116%.

Compound `COc1cc(Cl)ccc1COc1cc2c(cc1Cl)CCN(Cc1nc3c(F)cc(C(=O)O)cc3n1C[C@@H]1CCO1)[C@H]2C` [Compound I-334] gave an EC50 of 223 pM. Besides, the Emax under setting [1] was 114%.

Compound `C[C@H]1c2cc(OCc3ccc(F)cc3F)c(Cl)cc2CCN1Cc1nc2c(F)cc(C(=O)O)cc2n1C[C@@H]1CCO1` [Compound I-335] had an EC50 of 1230 pM. Under setting [1], the Emax amounted to 98%.

As to `C[C@H]1c2cc(OCc3ccc(Cl)cc3F)c(Cl)cc2CCN1Cc1nc2c(F)cc(C(=O)O)cc2n1C[C@@H]1CCO1` [Compound I-336], the response was half-maximal at 696 pM (EC50). Moreover, under setting [1], the Emax was found to be 100%.

On to `C[C@H]1c2cc(OCc3ccc(Cl)cc3Cl)c(Cl)cc2CCN1Cc1nc2c(F)cc(C(=O)O)cc2n1C[C@@H]1CCO1` [Compound I-337], for which a half-maximal response (EC50) required 325 pM. In addition, the Emax under setting [1] came out at 104%.

Consider `C[C@H]1c2cc(OCc3cc(F)c(Cl)cc3F)c(Cl)cc2CCN1Cc1nc2c(F)cc(C(=O)O)cc2n1C[C@@H]1CCO1` [Compound I-338], for which the EC50 stood at 1270 pM. Further, the Emax under setting [1] is 100%.

Turning to `C[C@H]1c2cc(OCc3c(F)cc(Cl)cc3F)c(Cl)cc2CCN1Cc1nc2c(F)cc(C(=O)O)cc2n1C[C@@H]1CCO1` [Compound I-339], the EC50 turned out to be 377 pM. The maximal response (Emax) under setting [1] came to 105%.

In the case of `COc1cc(C(=O)O)cc2c1nc(CN1CCc3cc(Cl)c(OCc4ccc(C)cc4)cc3[C@@H]1C)n2C[C@@H]1CCO1` [Compound I-340], a half-maximal effect (EC50) was put at 310 pM. Under setting [1], the Emax turned out to be 105%.

Regarding `COc1cc(C(=O)O)cc2c1nc(CN1CCc3cc(Cl)c(OCc4ccc(Cl)cc4)cc3[C@@H]1C)n2C[C@@H]1CCO1` [Compound I-341], the EC50 was found to be 236 pM. Also, the Emax under setting [1] came to 125%.

The compound `COc1cc(C(=O)O)cc2c1nc(CN1CCc3cc(Cl)c(OCc4ccc(C5CC5)cc4)cc3[C@@H]1C)n2C[C@@H]1CCO1` [Compound I-342] showed an EC50 of 1950 pM. The Emax under setting [1] turned out to be 97.3%.

In the case of `COc1cc(Cl)ccc1COc1cc2c(cc1Cl)CCN(Cc1nc3c(OC)cc(C(=O)O)cc3n1C[C@@H]1CCO1)[C@H]2C` [Compound I-343], it took 63 pM to reach a half-maximal effect (EC50). Further, under setting [1], the Emax is 111%.

As to `COc1cc(C(=O)O)cc2c1nc(CN1CCc3cc(Cl)c(OCc4ccc(Cl)cc4F)cc3[C@@H]1C)n2C[C@@H]1CCO1` [Compound I-344], a half-maximal response (EC50) required 82.4 pM. The Emax under setting [1] stood at 110%.

For `COc1cc(C(=O)O)cc2c1nc(CN1CCc3cc(Cl)c(OCc4ccc(Cl)cc4Cl)cc3[C@@H]1C)n2C[C@@H]1CCO1` [Compound I-345], a half-maximal response (EC50) required 96 pM. Further, the Emax under setting [1] worked out at 129%.

Regarding `COc1cc(C(=O)O)cc2c1nc(CN1CCc3cc(Cl)c(OCc4cc(F)c(Cl)cc4F)cc3[C@@H]1C)n2C[C@@H]1CCO1` [Compound I-346], the EC50 is 354 pM. Further, the Emax under setting [1] worked out at 117%.

Compound `Cc1ccc(COc2nc3c(cc2C(F)(F)F)CCN(Cc2nc4ccc(C(=O)O)nc4n2C[C@@H]2CCO2)[C@H]3C)cc1` [Compound I-347] yielded a 50% effective concentration (EC50) of 241 pM. Besides, the Emax under setting [1] was found to be 110%.

As to `C[C@H]1c2nc(OCc3ccc(Cl)cc3)c(C(F)(F)F)cc2CCN1Cc1nc2ccc(C(=O)O)nc2n1C[C@@H]1CCO1` [Compound I-348], it took 206 pM to reach a half-maximal effect (EC50). Under setting [1], the Emax was 129%.

For the compound `C[C@H]1c2nc(OCc3ccc(C4CC4)cc3)c(C(F)(F)F)cc2CCN1Cc1nc2ccc(C(=O)O)nc2n1C[C@@H]1CCO1` [Compound I-349], the response was half-maximal at 1270 pM (EC50). For the same compound, under setting [1], the Emax was found to be 117%.

In turn, `COc1cc(Cl)ccc1COc1nc2c(cc1C(F)(F)F)CCN(Cc1nc3ccc(C(=O)O)nc3n1C[C@@H]1CCO1)[C@H]2C` [Compound I-350] had an EC50 of 96.4 pM. Also, the Emax under setting [1] was 113%.

The compound `C[C@H]1c2nc(OCc3ccc(Cl)cc3Cl)c(C(F)(F)F)cc2CCN1Cc1nc2ccc(C(=O)O)nc2n1C[C@@H]1CCO1` [Compound I-351] returned an EC50 of 156 pM. Besides, under setting [1], the Emax is 121%.

In the case of `C[C@H]1c2nc(OCc3cc(F)c(Cl)cc3F)c(C(F)(F)F)cc2CCN1Cc1nc2ccc(C(=O)O)nc2n1C[C@@H]1CCO1` [Compound I-352], the EC50 was determined as 122 pM. In addition, the maximum response (Emax) under setting [1] stood at 113%.

Compound `Cc1ccc(COc2nc3c(cc2C(F)(F)F)CCN(Cc2nc4ccc(C(=O)O)c(F)c4n2C[C@@H]2CCO2)[C@H]3C)cc1` [Compound I-353] yielded an EC50 of 55.8 pM. Further, the Emax under setting [1] was determined as 115%.

The compound `COc1ccc(COc2nc3c(cc2C(F)(F)F)CCN(Cc2nc4ccc(C(=O)O)c(F)c4n2C[C@@H]2CCO2)[C@H]3C)cc1` [Compound I-354] came in with an EC50 of 139 pM. In addition, the Emax under setting [1] stood at 122%.

On to `C[C@H]1c2nc(OCc3ccc(Cl)cn3)c(C(F)(F)F)cc2CCN1Cc1nc2ccc(C(=O)O)c(F)c2n1C[C@@H]1CCO1` [Compound I-355], for which the EC50 amounted to 102 pM. Under setting [1], the Emax was found to be 119%.

Regarding `C[C@H]1c2nc(OCc3ccc(C4CC4)cc3)c(C(F)(F)F)cc2CCN1Cc1nc2ccc(C(=O)O)c(F)c2n1C[C@@H]1CCO1` [Compound I-356], it took 250 pM to reach a half-maximal effect (EC50). Under setting [1], the Emax was found to be 118%.

In turn, `COc1cc(Cl)ccc1COc1nc2c(cc1C(F)(F)F)CCN(Cc1nc3ccc(C(=O)O)c(F)c3n1C[C@@H]1CCO1)[C@H]2C` [Compound I-357] returned an EC50 of 42.5 pM. Also, the Emax under setting [1] stood at 123%.

In turn, `C[C@H]1c2nc(OCc3ccc(F)cc3F)c(C(F)(F)F)cc2CCN1Cc1nc2ccc(C(=O)O)c(F)c2n1C[C@@H]1CCO1` [Compound I-359] came in with an EC50 of 47.4 pM. For the same compound, the Emax under setting [1] was found to be 123%.

In turn, `C[C@H]1c2nc(OCc3ccc(OC(F)F)cc3F)c(C(F)(F)F)cc2CCN1Cc1nc2ccc(C(=O)O)c(F)c2n1C[C@@H]1CCO1` [Compound I-360] returned an EC50 of 104 pM. Besides, the Emax under setting [1] worked out at 115%.

`C[C@H]1c2nc(OCc3c(F)cc(F)cc3F)c(C(F)(F)F)cc2CCN1Cc1nc2ccc(C(=O)O)c(F)c2n1C[C@@H]1CCO1` [Compound I-361] gave an EC50 of 77.8 pM. For the same compound, under setting [1], the Emax turned out to be 108%.

Compound `C[C@H]1c2nc(OCc3c(F)cc(Cl)cc3F)c(C(F)(F)F)cc2CCN1Cc1nc2ccc(C(=O)O)c(F)c2n1C[C@@H]1CCO1` [Compound I-362] gave an EC50 of 40.8 pM. Moreover, the Emax under setting [1] amounted to 133%.

In turn, `Cc1ccc(COc2nc3c(cc2C(F)(F)F)CCN(Cc2nc4c(F)cc(C(=O)O)cc4n2C[C@@H]2CCO2)[C@H]3C)cc1` [Compound I-363] returned an EC50 of 91.1 pM. Also, under setting [1], the Emax is 115%.

In the case of `COc1ccc(COc2nc3c(cc2C(F)(F)F)CCN(Cc2nc4c(F)cc(C(=O)O)cc4n2C[C@@H]2CCO2)[C@H]3C)cc1` [Compound I-364], the EC50 came out at 148 pM. The Emax under setting [1] came out at 118%.

As for `C[C@H]1c2nc(OCc3ccc(Cl)cn3)c(C(F)(F)F)cc2CCN1Cc1nc2c(F)cc(C(=O)O)cc2n1C[C@@H]1CCO1` [Compound I-365], the EC50 is 73.6 pM. Besides, the Emax under setting [1] turned out to be 115%.

In the case of `C[C@H]1c2nc(OCc3ccc(C4CC4)cc3)c(C(F)(F)F)cc2CCN1Cc1nc2c(F)cc(C(=O)O)cc2n1C[C@@H]1CCO1` [Compound I-366], a half-maximal response (EC50) required 421 pM. Moreover, under setting [1], the Emax was 114%.

For `COc1cc(Cl)ccc1COc1nc2c(cc1C(F)(F)F)CCN(Cc1nc3c(F)cc(C(=O)O)cc3n1C[C@@H]1CCO1)[C@H]2C` [Compound I-367], the EC50 is 21.4 pM. Further, the maximal effect (Emax) under setting [1] turned out to be 107%.

Regarding `C[C@H]1c2nc(OCc3ccccc3Cl)c(C(F)(F)F)cc2CCN1Cc1nc2c(F)cc(C(=O)O)cc2n1C[C@@H]1CCO1` [Compound I-368], the EC50 was 136 pM and 200 pM. Moreover, the Emax under setting [1] is 120%. The same compound came in with an Emax (maximum effect) of 102%.

Regarding `C[C@H]1c2nc(OCc3ccc(F)cc3F)c(C(F)(F)F)cc2CCN1Cc1nc2c(F)cc(C(=O)O)cc2n1C[C@@H]1CCO1` [Compound I-369], the EC50 was 52.6 pM. Under setting [1], the Emax was determined as 112%.

Compound `C[C@H]1c2nc(OCc3ccc(OC(F)F)cc3F)c(C(F)(F)F)cc2CCN1Cc1nc2c(F)cc(C(=O)O)cc2n1C[C@@H]1CCO1` [Compound I-370] gave an EC50 of 143 pM. For the same compound, under setting [1], the Emax worked out at 109%.

For the compound `C[C@H]1c2nc(OCc3c(F)cc(F)cc3F)c(C(F)(F)F)cc2CCN1Cc1nc2c(F)cc(C(=O)O)cc2n1C[C@@H]1CCO1` [Compound I-371], the EC50 worked out at 49.5 pM. Also, the Emax under setting [1] was 122%.

`C[C@H]1c2nc(OCc3c(F)cc(Cl)cc3F)c(C(F)(F)F)cc2CCN1Cc1nc2c(F)cc(C(=O)O)cc2n1C[C@@H]1CCO1` [Compound I-372]: the EC50 is 23 pM. The Emax under setting [1] came out at 117%.

`COc1cc(C(=O)O)cc2c1nc(CN1CCc3cc(C(F)(F)F)c(OCc4ccc(C)cc4)nc3[C@@H]1C)n2C[C@@H]1CCO1` [Compound I-373] returned an EC50 of 19.4 pM. The Emax under setting [1] was 122%.

Turning to `COc1cc(C(=O)O)cc2c1nc(CN1CCc3cc(C(F)(F)F)c(OCc4ccc(Cl)cc4)nc3[C@@H]1C)n2C[C@@H]1CCO1` [Compound I-374], it took 20.8 pM to reach a half-maximal effect (EC50). Under setting [1], the Emax is 100%.

As to `COc1cc(C(=O)O)cc2c1nc(CN1CCc3cc(C(F)(F)F)c(OCc4ccc(C5CC5)cc4)nc3[C@@H]1C)n2C[C@@H]1CCO1` [Compound I-375], the EC50 was found to be 81.4 pM. Besides, the Emax under setting [1] was 103%.

In turn, `COc1cc(Cl)ccc1COc1nc2c(cc1C(F)(F)F)CCN(Cc1nc3c(OC)cc(C(=O)O)cc3n1C[C@@H]1CCO1)[C@H]2C` [Compound I-376] came in with an EC50 of 15.2 pM. The maximal effect (Emax) under setting [1] turned out to be 106%.
